According to patent US11077090B2, “Compounds and compositions and uses thereof” (Sunovion Pharmaceuticals Inc., priority 2016, dated 2021):

System: compound-treated mice
Experiment: Neuropharmacological assay (SmartCube): behavioral activity signature and minimal effective dose
Format: in vivo
Details: for minimal effective dose: Mus musculus, ip, MED = dose having 50% or more total activity, read-out: Potency: minimal effective dose (MED); for AD: ADHD (probability of activity signature) / AG: analgesic (probability of activity signature) / AX: anxiolytic (probability of activity signature) / CE: cognitive enhancer (probability of activity signature) / DP: anti-depressant (probability of activity signature) / MS: mood stabilizer (probability of activity signature) / PS: anti-psychotic (probability of activity signature) / SD: sedative hypnotic (probability of activity signature) / UN: uncharacterized CNS activity (probability of activity signature): i.p. 15 min before test, most efficacious dose(s)
In short: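 Video-recorded behavior is compared algorithmically against a reference-compound database, yielding class probabilities (best dose reported). Compounds given i.p. in NMP/PEG/propylene glycol 15 min pre-test at 3 doses; potency as MED, the dose (mpk, range usually 0.3–30) reaching ≥50% total activity.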

Cl.NC1COCc2ccc3c(c21)CCCC3 (stereo not drawn) [Example 19, 2,4,7,8,9,10-Hexahydro-1H-benzo[f]isochromen-1-amine hydrochloride]
minimal effective dose: 10 to 30 mg/kg
AD: ADHD (probability of activity signature): + (LOQ ≤ + <5%)
AG: analgesic (probability of activity signature): ++ (5% ≤ ++ <25%)
AX: anxiolytic (probability of activity signature): +++ (25% ≤ +++ <50%)
CE: cognitive enhancer (probability of activity signature): ++ (5% ≤ ++ <25%)
DP: anti-depressant (probability of activity signature): + (LOQ ≤ + <5%)
MS: mood stabilizer (probability of activity signature): + (LOQ ≤ + <5%)
PS: anti-psychotic (probability of activity signature): ++ (5% ≤ ++ <25%)
SD: sedative hypnotic (probability of activity signature): ++ (5% ≤ ++ <25%)
UN: uncharacterized CNS activity (probability of activity signature): +++ (25% ≤ +++ <50%)

CCc1ccc2c(c1)C(N)COC2.Cl (stereo not drawn) [Example 20, 6-Ethylisochroman-4-amine hydrochloride]
minimal effective dose: 3 to 10 mg/kg
AD: ADHD (probability of activity signature): + (LOQ ≤ + <5%)
AG: analgesic (probability of activity signature): ++ (5% ≤ ++ <25%)
AX: anxiolytic (probability of activity signature): +++ (25% ≤ +++ <50%)
CE: cognitive enhancer (probability of activity signature): ++ (5% ≤ ++ <25%)
DP: anti-depressant (probability of activity signature): ++ (5% ≤ ++ <25%)
MS: mood stabilizer (probability of activity signature): + (LOQ ≤ + <5%)
PS: anti-psychotic (probability of activity signature): +++ (25% ≤ +++ <50%)
SD: sedative hypnotic (probability of activity signature): ++ (5% ≤ ++ <25%)
UN: uncharacterized CNS activity (probability of activity signature): ++ (5% ≤ ++ <25%)

Cc1cccc2c1C(N)COC2.Cl (stereo not drawn) [Example 21, 5-Methylisochroman-4-amine hydrochloride]
minimal effective dose: 3 to 10 mg/kg
AD: ADHD (probability of activity signature): + (LOQ ≤ + <5%)
AG: analgesic (probability of activity signature): ++ (5% ≤ ++ <25%)
AX: anxiolytic (probability of activity signature): ++ (5% ≤ ++ <25%)
CE: cognitive enhancer (probability of activity signature): ++ (5% ≤ ++ <25%)
DP: anti-depressant (probability of activity signature): ++ (5% ≤ ++ <25%)
MS: mood stabilizer (probability of activity signature): + (LOQ ≤ + <5%)
PS: anti-psychotic (probability of activity signature): ++ (5% ≤ ++ <25%)
SD: sedative hypnotic (probability of activity signature): ++ (5% ≤ ++ <25%)
UN: uncharacterized CNS activity (probability of activity signature): +++ (25% ≤ +++ <50%)

Cl.NC1COCc2cccc(F)c21 (stereo not drawn) [Example 22]
minimal effective dose: 10 to 30 mg/kg
AD: ADHD (probability of activity signature): + (LOQ ≤ + <5%)
AG: analgesic (probability of activity signature): ++ (5% ≤ ++ <25%)
AX: anxiolytic (probability of activity signature): ++ (5% ≤ ++ <25%)
CE: cognitive enhancer (probability of activity signature): ++ (5% ≤ ++ <25%)
DP: anti-depressant (probability of activity signature): ++ (5% ≤ ++ <25%)
MS: mood stabilizer (probability of activity signature): + (LOQ ≤ + <5%)
PS: anti-psychotic (probability of activity signature): ++ (5% ≤ ++ <25%)
SD: sedative hypnotic (probability of activity signature): + (LOQ ≤ + <5%)
UN: uncharacterized CNS activity (probability of activity signature): +++ (25% ≤ +++ <50%)

Cl.NC1COCc2c(F)cccc21 (stereo not drawn) [Example 23]
minimal effective dose: 10 to 30 mg/kg
AD: ADHD (probability of activity signature): + (LOQ ≤ + <5%)
AG: analgesic (probability of activity signature): ++ (5% ≤ ++ <25%)
AX: anxiolytic (probability of activity signature): +++ (25% ≤ +++ <50%)
CE: cognitive enhancer (probability of activity signature): ++ (5% ≤ ++ <25%)
DP: anti-depressant (probability of activity signature): ++ (5% ≤ ++ <25%)
MS: mood stabilizer (probability of activity signature): + (LOQ ≤ + <5%)
PS: anti-psychotic (probability of activity signature): ++ (5% ≤ ++ <25%)
SD: sedative hypnotic (probability of activity signature): + (LOQ ≤ + <5%)
UN: uncharacterized CNS activity (probability of activity signature): ++ (5% ≤ ++ <25%)

COc1cccc2c1COCC2N.Cl (stereo not drawn) [Example 24]
minimal effective dose: 10 to 30 mg/kg
AD: ADHD (probability of activity signature): + (LOQ ≤ + <5%)
AG: analgesic (probability of activity signature): + (LOQ ≤ + <5%)
AX: anxiolytic (probability of activity signature): ++ (5% ≤ ++ <25%)
CE: cognitive enhancer (probability of activity signature): + (LOQ ≤ + <5%)
DP: anti-depressant (probability of activity signature): ++ (5% ≤ ++ <25%)
MS: mood stabilizer (probability of activity signature): + (LOQ ≤ + <5%)
PS: anti-psychotic (probability of activity signature): ++ (5% ≤ ++ <25%)
SD: sedative hypnotic (probability of activity signature): ++ (5% ≤ ++ <25%)
UN: uncharacterized CNS activity (probability of activity signature): + (LOQ ≤ + <5%)

COc1cccc2c1C(N)COC2.Cl (stereo not drawn) [Example 25]
minimal effective dose: 10 to 30 mg/kg
AD: ADHD (probability of activity signature): + (LOQ ≤ + <5%)
AG: analgesic (probability of activity signature): ++ (5% ≤ ++ <25%)
AX: anxiolytic (probability of activity signature): ++ (5% ≤ ++ <25%)
CE: cognitive enhancer (probability of activity signature): ++ (5% ≤ ++ <25%)
DP: anti-depressant (probability of activity signature): ++ (5% ≤ ++ <25%)
MS: mood stabilizer (probability of activity signature): + (LOQ ≤ + <5%)
PS: anti-psychotic (probability of activity signature): ++ (5% ≤ ++ <25%)
SD: sedative hypnotic (probability of activity signature): + (LOQ ≤ + <5%)
UN: uncharacterized CNS activity (probability of activity signature): +++ (25% ≤ +++ <50%)

Cc1ccc2c(c1)C(N)COC2.Cl (stereo not drawn) [Example 26]
minimal effective dose: < 3 mg/kg
AD: ADHD (probability of activity signature): + (LOQ ≤ + <5%)
AG: analgesic (probability of activity signature): ++ (5% ≤ ++ <25%)
AX: anxiolytic (probability of activity signature): ++ (5% ≤ ++ <25%)
CE: cognitive enhancer (probability of activity signature): ++ (5% ≤ ++ <25%)
DP: anti-depressant (probability of activity signature): ++ (5% ≤ ++ <25%)
MS: mood stabilizer (probability of activity signature): + (LOQ ≤ + <5%)
PS: anti-psychotic (probability of activity signature): ++ (5% ≤ ++ <25%)
SD: sedative hypnotic (probability of activity signature): + (LOQ ≤ + <5%)
UN: uncharacterized CNS activity (probability of activity signature): ++++ (50% ≤ ++++)

Cc1cccc2c1COCC2N.Cl (stereo not drawn) [Example 27]
minimal effective dose: 3 to 10 mg/kg
AD: ADHD (probability of activity signature): + (LOQ ≤ + <5%)
AG: analgesic (probability of activity signature): ++ (5% ≤ ++ <25%)
AX: anxiolytic (probability of activity signature): ++ (5% ≤ ++ <25%)
CE: cognitive enhancer (probability of activity signature): ++ (5% ≤ ++ <25%)
DP: anti-depressant (probability of activity signature): ++ (5% ≤ ++ <25%)
MS: mood stabilizer (probability of activity signature): ++ (5% ≤ ++ <25%)
PS: anti-psychotic (probability of activity signature): ++ (5% ≤ ++ <25%)
SD: sedative hypnotic (probability of activity signature): + (LOQ ≤ + <5%)
UN: uncharacterized CNS activity (probability of activity signature): +++ (25% ≤ +++ <50%)

Cl.NC1COCc2cccc(Cl)c21 (stereo not drawn) [Example 28]
minimal effective dose: 3 to 10 mg/kg
AD: ADHD (probability of activity signature): + (LOQ ≤ + <5%)
AG: analgesic (probability of activity signature): ++ (5% ≤ ++ <25%)
AX: anxiolytic (probability of activity signature): ++ (5% ≤ ++ <25%)
CE: cognitive enhancer (probability of activity signature): ++ (5% ≤ ++ <25%)
DP: anti-depressant (probability of activity signature): ++ (5% ≤ ++ <25%)
MS: mood stabilizer (probability of activity signature): + (LOQ ≤ + <5%)
PS: anti-psychotic (probability of activity signature): ++ (5% ≤ ++ <25%)
SD: sedative hypnotic (probability of activity signature): + (LOQ ≤ + <5%)
UN: uncharacterized CNS activity (probability of activity signature): +++ (25% ≤ +++ <50%)

CC1(C)OCC(N)c2ccccc21.Cl (stereo not drawn) [Example 29]
minimal effective dose: 10 to 30 mg/kg
AD: ADHD (probability of activity signature): + (LOQ ≤ + <5%)
AG: analgesic (probability of activity signature): +++ (25% ≤ +++ <50%)
AX: anxiolytic (probability of activity signature): ++ (5% ≤ ++ <25%)
CE: cognitive enhancer (probability of activity signature): + (LOQ ≤ + <5%)
DP: anti-depressant (probability of activity signature): ++ (5% ≤ ++ <25%)
MS: mood stabilizer (probability of activity signature): + (LOQ ≤ + <5%)
PS: anti-psychotic (probability of activity signature): + (LOQ ≤ + <5%)
SD: sedative hypnotic (probability of activity signature): + (LOQ ≤ + <5%)
UN: uncharacterized CNS activity (probability of activity signature): + (LOQ ≤ + <5%)

Cl.NC1COCCc2ccccc21 (stereo not drawn) [Example 30]
minimal effective dose: > 30 mg/kg
AD: ADHD (probability of activity signature): + (LOQ ≤ + <5%)
AG: analgesic (probability of activity signature): ++ (5% ≤ ++ <25%)
AX: anxiolytic (probability of activity signature): + (LOQ ≤ + <5%)
CE: cognitive enhancer (probability of activity signature): + (LOQ ≤ + <5%)
DP: anti-depressant (probability of activity signature): + (LOQ ≤ + <5%)
MS: mood stabilizer (probability of activity signature): + (LOQ ≤ + <5%)
PS: anti-psychotic (probability of activity signature): + (LOQ ≤ + <5%)
SD: sedative hypnotic (probability of activity signature): + (LOQ ≤ + <5%)
UN: uncharacterized CNS activity (probability of activity signature): + (LOQ ≤ + <5%)
